PubChem BioAssay (NCI)
Values joined by “and” are separate entries in the source; they are usually repeats but may differ in a detail not shown here. Equal entries are not always repeated.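 Test compounds were applied to cells in 96-well plates for 48 hours at 5 doses. At the GI50, growth is halved. TGI: concentration producing complete growth inhibition.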

Experiments:
Test in all cases: NCI tumour cell line growth inhibition, 48 h
SNB-19 CNS = tested on: SNB-19 CNS
RXF 393 renal = tested on: RXF 393 renal
CAKI-1 renal = tested on: CAKI-1 renal
DU-145 prostate = tested on: DU-145 prostate
SK-MEL-28 melanoma = tested on: SK-MEL-28 melanoma
OVCAR-3 ovarian = tested on: OVCAR-3 ovarian
A549 NSCLC = tested on: A549 NSCLC
SF-268 CNS = tested on: SF-268 CNS
TK-10 renal = tested on: TK-10 renal
OVCAR-8 ovarian = tested on: OVCAR-8 ovarian

Row | Compound | GI50 (SNB-19 CNS) | TGI (SNB-19 CNS) | TGI (RXF 393 renal) | TGI (CAKI-1 renal) | GI50 (DU-145 prostate) | TGI (DU-145 prostate) [µM] | GI50 (SK-MEL-28 melanoma) | TGI (SK-MEL-28 melanoma) | GI50 (OVCAR-3 ovarian) | TGI (OVCAR-3 ovarian) | GI50 (A549 NSCLC) | TGI (A549 NSCLC) [µM] | GI50 (SF-268 CNS) | TGI (SF-268 CNS) [µM] | TGI (TK-10 renal) [µM] | TGI (OVCAR-8 ovarian) [µM] | GI50 (RXF 393 renal) [µM] | GI50 (CAKI-1 renal) [µM] | GI50 (OVCAR-8 ovarian) [µM] | GI50 (TK-10 renal) [µM]
1 | CC(=O)OCC1OC(n2c(-c3ccccc3)c(N=Nc3ccc(Cl)cc3)c(C)c(C#N)c2=S)C(OC(C)=O)C(OC(C)=O)C1OC(C)=O (stereo not drawn) | 4.48 µM and 34.1 µM | 33.3 µM and > 100 µM | 35.6 µM and 48.8 µM | 63.9 µM and > 100 µM | 25.3 µM and > 100 µM | > 100 | 4.58 µM and 30.3 µM | 16.9 µM and > 100 µM | 4.77 µM and 39.8 µM | 52.5 µM and > 100 µM | 6.86 µM and 22.1 µM | > 100 | 14.7 µM and 39.3 µM | > 100 | > 100 |  |  |  |  | 
2 | CC1OC(OP(=O)(OCc2ccccc2)OCc2ccccc2)C(OC(=O)c2ccccc2)C(OC(=O)c2ccccc2)C1I (stereo not drawn) |  | > 100 µM | 76.9 µM | > 100 µM |  |  |  | > 100 µM |  | > 100 µM |  | > 100 |  | > 100 | > 100 | > 100 |  |  |  | 
3 | N#CC(C(=O)c1ccccc1F)c1nc2cc(C(F)(F)F)ccc2s1 (stereo not drawn) |  |  | > 100 µM | > 100 µM |  | > 100 |  | > 100 µM |  | 52.7 µM |  |  |  | > 100 | > 100 | > 100 |  |  |  | 
4 | COc1cc(/C=C\c2ccc(SC)cc2)cc(OC)c1OC |  |  | 0.0402 µM |  |  | > 100 |  | > 100 µM |  | 57.8 µM |  | > 100 |  | 56.1 | > 100 | > 41 |  |  |  | 
5 | Cc1c(Cl)cccc1NC(=O)C(=O)C1C(=O)NC(=O)NC1=O |  | > 100 µM | > 100 µM | > 100 µM |  |  |  | > 100 µM |  | > 100 µM |  | > 100 |  | > 100 | > 100 | > 100 |  |  |  | 
6 | COc1ccc(N=NN2CCCC2)cc1 |  | > 100 µM | 64.1 µM | 35.1 µM |  | > 100 |  | > 100 µM |  | 43.8 µM |  | > 100 |  | > 100 | > 100 |  |  |  |  | 
7 | COc1cc(-c2ccc(-c3ccc(C(=N)N)s3)s2)cc(OC)c1OC |  |  | 3.39 µM | 3.28 µM | 2.32 µM | 5.83 |  |  | 2.22 µM | 4.71 µM |  |  | 1.74 µM | 3.49 | 7.34 | 5.31 | 1.66 | 1.7 | 2.62 | 2.7
8 | CC(C)(C)[Si](C)(C)OCC1OC(n2ccc(=O)[nH]c2=O)C(O[Si](C)(C)C(C)(C)C)/C1=N/O (stereo not drawn) |  | 18.1 µM | 23.3 µM | 37.9 µM |  | 28.5 |  | 9.69 µM |  | > 100 µM |  | 14 |  |  | 20.9 | 13.9 |  |  |  | 
9 | CCC(=O)O[C@@H]1C2C(OC(C)=O)C34COC(C)([C@@H]3C3C(C[C@]3(C)OC(C)=O)[C@@H](OC(=O)c3ccccc3)C4=O)[C@H](OC(C)=O)[C@@]2(OC(C)=O)C[C@@H]1C (stereo partly drawn) |  | 45.8 µM |  | > 100 µM |  |  |  | > 100 µM |  | 82.7 µM |  | > 100 |  | > 100 | 46 | > 100 |  |  |  | 
10 | CCCCCCCCCCCCCC(=O)OCC1OC(OC)C(NC(=O)N(CCCl)N=O)C(O)C1O (stereo not drawn) |  | > 100 µM | 32.1 µM | > 100 µM |  |  |  | 59.4 µM |  | 53.2 µM |  | 58.2 |  | 40.1 | 90.7 | 61.1 |  |  |  | 
